Experiment [1] is described as follows: Antagonist activity at P2Y1 receptor in platelet-enriched human plasma assessed as 10 uM ADP-induced platelet aggregation preincubated for 1 min followed by ADP induction measured at 5 mins by aggregometric analysis.
The nature of experiment [2]: Antagonist activity at P2Y1 receptor in platelet-enriched human plasma assessed as 2.5 uM ADP-induced platelet aggregation preincubated for 1 min followed by ADP induction measured at 5 mins by aggregometric analysis.

What is called IC50 is the concentration at which inhibition is half-maximal.

On to `CC(C)(C)CN1CCC2(CC1)CN(c1ccccc1NC(=O)Nc1ccc(OC(F)(F)F)cc1)c1ccncc12`, for which, in experiment [1], the IC50 was above 40 µM. On the same count and under the same terms, as for `CC(C)(C)CN1CCC2(CC1)CN(c1ccccc1NC(=O)Nc1ccc(OC(F)(F)F)cc1)c1ncccc12`, the figure is above 40 µM. For `COCCN1CCC2(CC1)CN(c1ccccc1NC(=O)Nc1ccc(OC(F)(F)F)cc1)c1ccccc12`, the IC50 in experiment [2] stood at 25.4 µM. For `CC(C)N1CCC2(CC1)CN(c1ccccc1NC(=O)Nc1ccc(OC(F)(F)F)cc1)c1ccccc12`, the IC50 in experiment [1] came to 29.2 µM; in experiment [2], 4.7 µM. Regarding `CC(C)NC(=O)N1CCC2(CC1)CN(c1ccccc1NC(=O)Nc1ccc(OC(F)(F)F)cc1)c1ccccc12`, in experiment [2], the IC50 was above 10 µM. Still for that read-out and setting: to `CN1CCN(c2ccccc2NC(=O)Nc2ccc(OC(F)(F)F)cc2)c2ccccc21` belongs above 10 µM. `CC(C)CN1CCC2(CC1)CN(c1ccccc1NC(=O)Nc1ccc(OC(F)(F)F)cc1)c1ccccc12`: the results for the IC50 in experiment [1] and in experiment [2] were 8.8 µM and 2.2 µM, respectively. As to `CC1(C)CN(c2ncccc2NC(=O)Nc2ccc(OC(F)(F)F)cc2)c2ccccc21`, the IC50 in experiment [2] was above 10 µM. Regarding `O=C(Nc1ccc(OC(F)(F)F)cc1)Nc1ccccc1N1CC2(CCN(Cc3ccccc3)CC2)c2ccccc21`, the IC50 in experiment [1] is 18.6 µM; in experiment [2], 3.3 µM.

Consider `CC(C)(C)CN1CCC2(C1)CN(c1ccccc1NC(=O)Nc1ccc(OC(F)(F)F)cc1)c1ccccc12` (stereo not drawn), for which the IC50 in experiment [1] is 18.5 µM. As for `CC1(C)CCN(c2ncccc2NC(=O)Nc2ccc(OC(F)(F)F)cc2)c2ccccc21`, the IC50 in experiment [2] was determined as 11.1 µM. For the compound `CC(C)(C)CN1CCC2(CC1)CN(c1ccccc1NC(=O)Nc1ccc(OC(F)(F)F)cc1)c1cccnc12`, the IC50 in experiment [1] stood at 15.1 µM. For `COC(=O)N1CCC2(CC1)CN(c1ccccc1NC(=O)Nc1ccc(OC(F)(F)F)cc1)c1ccccc12`, the IC50 in experiment [1] was determined as 54.2 µM; in experiment [2], 5.8 µM. Take `CC(C)(C)CN1CCCC2(C1)CN(c1ccccc1NC(=O)Nc1ccc(OC(F)(F)F)cc1)c1ccccc12` (stereo not drawn): in experiment [1], the IC50 was above 40 µM.

As for `CC(C)(C)CN1CCC2(CC1)CN(c1ccccc1NC(=O)Nc1ccc(OC(F)(F)F)cc1)c1cnccc12`, in experiment [1], the 50% inhibitory concentration (IC50) was 4 µM. For the compound `O=C(Nc1ccc(OC(F)(F)F)cc1)Nc1ccccc1N1CC2(CCC2)c2ccccc21`, the IC50 in experiment [2] came to 4.1 µM. `CC(C)(C)CN1CCC2(CC1)CCN(c1ccccc1NC(=O)Nc1ccc(OC(F)(F)F)cc1)c1ccccc12`: the IC50 in experiment [1] was found to be 6.3 µM. For `CC1(C)CN(c2ccccc2NC(=O)Nc2ccc(OC(F)(F)F)cc2)c2ccccc21`, the IC50 in experiment [2] was determined as 8.5 µM. Turning to `CC1(C)CCN(c2ccccc2NC(=O)Nc2ccc(OC(F)(F)F)cc2)c2ccccc21`, the IC50 in experiment [2] came to 2.2 µM.

With `O=C(Nc1ccc(OC(F)(F)F)cc1)Nc1ccccc1N1CC2(CCCC2)c2ccccc21`, the 50% inhibitory concentration (IC50) in experiment [2] was 2.4 µM.

For `O=C(Nc1ccc(OC(F)(F)F)cc1)Nc1ccccc1N1CC2(CCN(C(=O)OCc3ccccc3)CC2)c2ccccc21`, the IC50 in experiment [2] is above 10 µM. As for `O=C(Nc1ccc(OC(F)(F)F)cc1)Nc1ccccc1N1CC2(CCCCC2)c2ccccc21`, the IC50 in experiment [2] was found to be 2 µM. On to `CC(C)(C)CN1CCC2(CC1)CN(c1ccccc1NC(=O)Nc1ccc(OC(F)(F)F)cc1)c1ccccc12`, for which the IC50 in experiment [1] was determined as 4.9 µM; in experiment [2], 0.67 µM.

As for `O=C(Nc1ccc(OC(F)(F)F)cc1)Nc1ccccc1N1CC2(CC2)c2ccccc21`, the IC50 in experiment [2] was above 10 µM. On the same count and under the same terms, to `CC1(C)CN(c2ccccc2NC(=O)Nc2ccc(OC(F)(F)F)cc2)c2ccccc2O1` belongs above 10 µM; to `O=C(Nc1ccc(OC(F)(F)F)cc1)Nc1ccccc1N1CCOc2ccccc21`, above 10 µM. Turning to `CC1CCN(c2ccccc2NC(=O)Nc2ccc(OC(F)(F)F)cc2)c2ccccc21` (stereo not drawn), the IC50 in experiment [2] was above 10 µM. Still for that read-out and setting: to `O=C(Nc1ccc(OC(F)(F)F)cc1)Nc1ccccc1N1CCCc2ccccc21` belongs above 10 µM.

(Values after BindingDB's records for doi:10.1021/jm4013906 (Bristol-Myers Squibb, 2013).)
